Data from US9005963B2, “Amino acid sequences directed against cellular receptors for viruses and bacteria” (Ablynx N.V., priority 2008, dated 2015).
In brackets after ≈: the same amount, converted by molar mass. Marks after values point to notes of the source that are not given here.

Key:
X4 HIV-1 NL4.3 [1] = assay: HIV-1 infection assay MT-4/NL4.3 (cytopathic effect, MTS); assay type: cell-based; conditions: Human immunodeficiency virus 1; MT-4/NL4.3 exp. 1
X4 HIV-1 NL4.3 [2] = assay: HIV-1 infection assay PBMC/NL4.3 (p24 Ag ELISA); assay type: cell-based; conditions: Human immunodeficiency virus 1, PBMC
Method: (§1) The CXCR4-using (X4) HIV-1 molecular clone NL4.3 was obtained from the National Institutes of Health NIAID AIDS Reagent program (Bethesda, Md.), the CCR5-using (R5) HIV-1 strain BaL was obtained from the Medical Research Council AIDS reagent project (Herts, UK). […] The MT-4 cells were seeded out in 96-well plate and the U87 cells in 24-well plates. The test compounds were added at different concentrations together with HIV-1 and the plates were maintained at 37° C. in 10% CO2. Cytopathic effect induced by the virus was monitored by daily microscopic evaluation of the virus-infected cell cultures. […] The absorbance was then measured spectrophotometrically at 490 nm with a 96-well plate reader (Molecular Devices, Sunnyvale, Calif.) and compared with four cell control replicates (cells without virus and drugs) and four virus control wells (virus-infected cells without drugs).
(§2) Peripheral blood mononuclear cells (PBMCs) from healthy donors were isolated by density centrifugation (Lymphoprep; Nycomed Pharma, AS Diagnostics, Oslo, Norway) and stimulated with phytohemagglutin (PHA) (Sigma Chemical Co., Bornem Belgium) for 3 days. The activated cells (PHA-stimulated blasts) were washed with PBS and viral infections were performed as described previously (Schols D, Struyf S, Van Damme J, Este J A, Henson G, De Clercq E. Inhibition of T-tropic HIV strains by selective antagonization of the chemokine receptor CXCR4. J Exp Med 1997; 186:1383-1388). At 8-10 days after the start of the infection, viral p24 Ag was detected in the culture supernatant by an enzyme-linked immunosorbent assay (Perkin Elmer, Brussels, Belgium).
(§3) The anti-HIV-1 potencies of NANOBODIES on the X4 HIV-1 clone NL4.3 or primary virus strains UG270 (X4, Clade D), CI#17 (X4, clade B), the R5 HIV-1 strain BaL or the R5/X4 HIV-1 HE strain in MT-4, U87.CD4.CXCR4, U87.CD4.CCR5 and/or phytohemagglutin-stimulated PBMCs from different donors were determined by measuring the cytopathic effect of HIV-1 (in MT-4 and U87 cell lines) microscopically and by tetrazolium-based colorimetric evaluation or by quantification of the viral p24 antigen production in the culture supernatant (PBMCs) as described in detail. Primary virus strains were grown 1 or 2 times in PBMC only.
Peripheral blood mononuclear cells (PBMCs) from healthy donors were isolated by density centrifugation (Lymphoprep; Nycomed Pharma, AS Diagnostics, Oslo, Norway) and stimulated with phytohemagglutin for 3 days. […] At 8-10 days after the start of the infection, viral p24 Ag was detected in the culture supernatant by an enzyme-linked immunosorbent assay (Perkin Elmer, Brussels, Belgium).

[3] = system: HIV-1 UG270 (X4, Clade D); assay: HIV-1 infection assay PBMC/primary isolate UG270 (p24 Ag ELISA); assay type: cell-based; conditions: Human immunodeficiency virus 1, PBMC
Method: as §3
as §2, with “phytohemagglutin” for “phytohemagglutin (PHA) (Sigma Chemical Co., Bornem Belgium)”, “cells” for “cells (PHA-stimulated blasts)”, “et al. (1997)” for “Struyf S, Van Damme J, Este J A, Henson G, De Clercq E.”, “Med” for “Med 1997;”

[4] = system: HIV-1 CI#17 (X4, clade B); assay: HIV-1 infection assay PBMC/primary isolate CI#17 (p24 Ag ELISA); assay type: cell-based; conditions: Human immunodeficiency virus 1, PBMC
Method: as §3
as §2, with “phytohemagglutin” for “phytohemagglutin (PHA) (Sigma Chemical Co., Bornem Belgium)”, “cells” for “cells (PHA-stimulated blasts)”, “et al. (1997)” for “Struyf S, Van Damme J, Este J A, Henson G, De Clercq E.”, “Med” for “Med 1997;”

CXCR4 [5] = molecular target: T1, CXCR4 (Homo sapiens, UniProt P61073); conditions: 3 μM; control experiment; membranes from HEK293T cells transiently expressing CXCR4
T1 sequence (P61073 whole entry): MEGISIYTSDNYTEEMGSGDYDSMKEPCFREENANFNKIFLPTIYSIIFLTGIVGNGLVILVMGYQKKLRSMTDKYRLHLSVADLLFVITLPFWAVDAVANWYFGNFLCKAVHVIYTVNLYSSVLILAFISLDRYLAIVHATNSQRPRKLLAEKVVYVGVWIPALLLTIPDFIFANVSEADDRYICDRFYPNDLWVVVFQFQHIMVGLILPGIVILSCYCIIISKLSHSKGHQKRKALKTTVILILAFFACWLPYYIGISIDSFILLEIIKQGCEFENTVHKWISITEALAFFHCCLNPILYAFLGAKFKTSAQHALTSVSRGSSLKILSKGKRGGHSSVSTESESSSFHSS

CXCR4 [6] = molecular target: T1, CXCR4; assay: Competition binding with [125I]-CXCL12 on membranes from HEK293T cells transiently expressing CXCR4; set-up: expressed in transfected cells; host or cells: HEK293T, transient (pcDNA3.1-CXCR4); conditions: for Displacem. (%) of [125I]-CXCL12: maximal displacement, a: no significant displacement at 0.5 μM, b/c(B-6): maximum not reached, displacement at 0.5 μM
Method: (§4) Membranes from HEK293T cells transiently expressing CXCR3 or CXCR4 were prepared 48 h after transfection as follows. Cells were washed and scraped from the cell culture dishes with ice-cold PBS containing 1 mm EDTA. The scraped cells were pelleted at 1500×g for 10 min at 4° C. The pellet was washed and then resuspended in ice-cold membrane buffer (15 mM Tris, pH 7.5, 1 mM EGTA, 0.3 mM EDTA, and 2 mM MgCl2). The cell suspension was homogenized by 10 strokes at 1200 rpm using a Teflon-glass homogenizer and rotor and further subjected to three freeze-thaw cycles using liquid nitrogen. Membranes were separated by centrifugation at 40,000 g for 25 min at 4° C. The membrane pellet was washed and resuspended in ice-cold Tris-sucrose buffer (20 mM Tris, pH 7.4, and 250 mM sucrose) and frozen in liquid nitrogen. The total protein was determined using a Bradford assay (Bio-Rad).
Membranes were then harvested over polyethylenimine (0.5%)-treated Whatman GF/C filter plates and washed three times with ice cold binding buffer containing 500 mM NaCl. Plates were counted by liquid scintillation. […]

CXCR4 [7] = molecular target: T1, CXCR4; assay: Competition binding with [125I]-238D2 on membranes from HEK293T cells transiently expressing CXCR4; set-up: expressed in transfected cells; host or cells: HEK293T, transient (pcDNA3.1-CXCR4)
Method: as §4
(§5) Membranes were then harvested over polyethylenimine (0.5%)-treated Whatman GF/C filter plates and washed three times with ice cold binding buffer containing 500 mM NaCl. Plates were counted by liquid scintillation.

CXCR4 [8] = molecular target: T1, CXCR4; assay: Competition binding with [125I]-238D4 on membranes from HEK293T cells transiently expressing CXCR4; set-up: expressed in transfected cells; host or cells: HEK293T, transient (pcDNA3.1-CXCR4)
Method: as §4, §5

R5 HIV-1 BaL [9] = assay: HIV-1 infection assay PBMC/BaL (p24 Ag ELISA); assay type: cell-based
Method: as §1, §2, §3
as §2, with “phytohemagglutin” for “phytohemagglutin (PHA) (Sigma Chemical Co., Bornem Belgium)”, “cells” for “cells (PHA-stimulated blasts)”, “et al. (1997)” for “Struyf S, Van Damme J, Este J A, Henson G, De Clercq E.”, “Med” for “Med 1997;”

R5 HIV-1 BaL [10] = assay: HIV-1 infection assay U87.CD4.CCR5/BaL (MTS); assay type: cell-based; conditions: read-out: Anti-HIV-1 activity (IC50)
[11] = 238C5 only at high concentrations (≧100 nM)
[12] = maximal displacement, a: no significant displacement at 0.5 μM, b: displacement at 0.5 μM

c1cc(CN2CCCNCCNCCCNCC2)ccc1CN1CCCNCCNCCCNCC1 [AMD3100] showed an IC50 (X4 HIV-1 NL4.3 [1]) of 0.0064 µg/mL (≈ 0.0127 µM), an IC90 (X4 HIV-1 NL4.3 [1]) of over 0.04 µg/mL and an IC50 (X4 HIV-1 NL4.3 [2]; PBMC + NL4.3 donor 1) of 0.0011 µg/mL. The IC90 (X4 HIV-1 NL4.3 [2]; PBMC + NL4.3 donor 1) was 0.0099 µg/mL, the IC50 (X4 HIV-1 NL4.3 [2]; PBMC + NL4.3 donor 2) was over 0.04 µg/mL and the IC90 (X4 HIV-1 NL4.3 [2]; PBMC + NL4.3 donor 2) was over 0.04 µg/mL. For the same molecule, the IC50 ([3]; PBMC + UG270 donor 1) was 0.0036 µg/mL, the IC90 ([3]; PBMC + UG270 donor 1) was 0.0154 µg/mL and the IC50 ([3]; PBMC + UG270 donor 2) was 0.0179 µg/mL. The IC90 ([3]; PBMC + UG270 donor 2) was 0.0341 µg/mL, the IC50 ([4]; PBMC + CI#17 donor 1) was 0.0121 µg/mL and the IC90 ([4]; PBMC + CI#17 donor 1) was over 0.04 µg/mL. For the same molecule, the IC50 ([4]; PBMC + CI#17 donor 2) was 0.0149 µg/mL, the IC90 ([4]; PBMC + CI#17 donor 2) was 0.0379 µg/mL and the “displacement of [125I]-CXCL12” value (CXCR4 [5]) was “full”. For the same molecule, the “Displacem. (%) of [125I]-CXCL12” value (CXCR4 [6]) was 94 ± 2%, the “displacement of [125I]-238D2 (in words)” value (CXCR4 [7]; [11]) was “displaced” and the “Displacem. (%) of [125I]-238D2” value (CXCR4 [7]; [12]) was 102 ± 1%. The “displacement of [125I]-238D4 (in words)” value (CXCR4 [8]; [11]) was “displaced” and the “Displacem. (%) of [125I]-238D4” value (CXCR4 [8]; [12]) was 99 ± 4%.

With maraviroc the “IC50” value (R5 HIV-1 BaL [9]; PBMC + BaL donor 1) was 0.0015 µg/mL, the “IC90” value (R5 HIV-1 BaL [9]; PBMC + BaL donor 1) was 0.0273 µg/mL and the “IC50” value (R5 HIV-1 BaL [9]; PBMC + BaL donor 2) was 0.0008 µg/mL. For the same molecule, the “IC90” value (R5 HIV-1 BaL [9]; PBMC + BaL donor 2) was 0.0131 µg/mL, the IC50 (R5 HIV-1 BaL [9]; read-out: Anti-HIV-1 activity (IC50), PBMC/BaL) was 3.13 nM and the IC50 (R5 HIV-1 BaL [10]) was 0.72 nM.

B1: 238D2-20GS-238B10: bivalent Nanobody, SEQ ID NO: 266 (protein)
chain: EVQLVESGGGLVQTGGSLRLSCAASGFTFSSYAMSWVRQAPGKGLEWVSGIKSSGDSTRYAGSVKGRFTISRDNAKNMLYLQMYSLKPEDTAVYYCAKSRVSRTGLYTYDNRGQGTQVTVSSGGGGSGGGGSGGGGSGGGGSEVQLVESGGGFVQAGGSLRLSCETSGRPLLGYTIAWFRQVPGKEREFVAYHRWSDGANLYADSVKGRFTISGHNAKNTVSLQMNSLKPEDTAVYYCAAARMTTSNDKEYLYWGQGTQVTVSS
modifications: Nanobodies
For B1, the “pKi ([125I]-CXCL12)” value (CXCR4 [6]; HEK293T-CXCR4 membranes) was under 7.00, the “Rel. potency, relative to monovalent 238D2” value (CXCR4 [6]; [125I]-CXCL12 displacement affinity, fold) was <0.1^a and the “Displacem. (%) of [125I]-CXCL12” value (CXCR4 [6]) was 43 ± 11^c %.
